In patent publication US9265773B2, “Tetracyclic heterocycle compounds and methods of use thereof for the treatment of viral diseases” (priority 2011, dated 2016) one finds IC50 data, which are given here for 30 compounds.

The test system of one assay is HCV replicon genotype 1a. Briefly: microbe, parasite or virus in culture. Particulars: genotype 1a replicon cells, incubated 96 hours, NS3/4A ELISA readout. Type of assay: cell-based. (A replicon is a self-replicating genome or part of one, used to study replication in cells.)
Another assay has as its system HCV replicon genotype 1b. Briefly: microbe, parasite or virus in culture. Format: cell-based. Particulars: genotype 1b replicon cells, incubated 96 hours, NS3/4A ELISA readout.

For orientation: IC50 means the concentration at which inhibition is half-maximal. A high value points to weaker potency. As to `CNC(=O)c1c(-c2ccc(F)cc2F)oc2cc(N(C)S(C)(=O)=O)c(-c3ncc4c(n3)-c3cc5c(F)cccc5n3CO4)cc12` [Compound 149], the IC50 worked out at 1.2 nM in the assay with HCV replicon genotype 1a (Hepatitis C virus, 96 h) and 2.2 nM in the assay with HCV replicon genotype 1b (Hepatitis C virus, 96 h).

Turning to `CNC(=O)c1c(-c2ccc(F)cc2)oc2cc(N(C)S(C)(=O)=O)c(-c3ccc4c(n3)-c3cc5nc(OC)ccc5n3CO4)cc12` [Compound 45, 2-(4-fluorophenyl)-5-(10-methoxy-6H-pyrido[2,3-e]pyrido[2′,3′:4,5]pyrrolo[1,2-c][1,3]oxazin-2-yl)-N-methyl-6-(N-methylmethylsulfonamido)benzofuran-3-carboxamide], the half-inhibitory concentration (IC50) in the assay with HCV replicon genotype 1a (Hepatitis C virus, 96 h) was 9.2 nM; in the assay with HCV replicon genotype 1b (Hepatitis C virus, 96 h), 11 nM.

On to `CNC(=O)c1c(-c2ccc(F)cc2)oc2cc(N(CCF)S(C)(=O)=O)c(-c3ncc4c(n3)-c3cc5ccccc5n3CO4)cc12` [Compound 196], for which the IC50 in the assay with HCV replicon genotype 1a (Hepatitis C virus, 96 h) came out at 1.8 nM; in the assay on HCV replicon genotype 1b (Hepatitis C virus, 96 h) it was 3.6 nM.

Turning to `CNC(=O)c1c(-c2ccc(F)cc2)oc2cc(N(C)S(C)(=O)=O)c(-c3ncc4c(n3)-c3cc5ccccc5n3CCO4)cc12` [Compound 7], the concentration for half-maximal inhibition (IC50) in the assay on HCV replicon genotype 1a (Hepatitis C virus, 96 h) is 2.4 nM; with HCV replicon genotype 1b (Hepatitis C virus, 96 h) it was 1.6 nM.

As to `CNC(=O)c1c(-c2ccc(F)cc2)oc2cc(N(C)S(C)(=O)=O)c(-c3cc4c(cn3)OCn3c-4cc4ccccc43)cc12` [Compound 11], the half-inhibitory concentration (IC50) in the assay with HCV replicon genotype 1a (Hepatitis C virus, 96 h) is 2.1 nM; in the assay on HCV replicon genotype 1b (Hepatitis C virus, 96 h), 1.8 nM.

Consider `CNC(=O)c1c(-c2ccc(F)cc2)oc2cc(N(C)S(C)(=O)=O)c(-c3ccc4c(n3)-c3cc5c(F)cccc5n3C(C(N)=O)O4)cc12` (stereo not drawn) [Compound 105, 11-fluoro-2-(2-(4-fluorophenyl)-3-(methylcarbamoyl)-6-(N-methylmethylsulfonamido)benzofuran-5-yl)-6H-pyrido[2′,3′:5,6][1,3]oxazino[3,4-a]indole-6-carboxamide], for which the IC50 with HCV replicon genotype 1a worked out at 1.4 nM; in the assay on HCV replicon genotype 1b it was 0.9 nM.

For the compound `CNC(=O)c1c(-c2ccc(F)cc2)oc2cc(N(C)S(C)(=O)=O)c(-c3ccc4c(n3)-c3nc5cccnc5n3CO4)cc12` [Compound 137], the IC50 was 44 nM with HCV replicon genotype 1a (Hepatitis C virus, 96 h) and 7.9 nM in the assay with HCV replicon genotype 1b (Hepatitis C virus, 96 h).

With `CNC(=O)c1c(-c2ccc(F)cc2)oc2cc(N(C)S(C)(=O)=O)c(-c3ncc4c(n3)-c3cc5ccccc5n3C(C)O4)cc12` (stereo not drawn) [Compound 9], the IC50 in the assay on HCV replicon genotype 1a (Hepatitis C virus, 96 h) was found to be 1.1 nM; in the assay on HCV replicon genotype 1b (Hepatitis C virus, 96 h), 1.9 nM.

For the compound `CNC(=O)c1c(-c2ccc(F)cc2)oc2cc(N3CCOC3=O)c(-c3ccc4c(n3)-c3cc5c(F)cccc5n3CO4)cc12` [Compound 172, 5-(11-fluoro-6H-pyrido[2′,3′:5,6][1,3]oxazino[3,4-a]indol-2-yl)-2-(4-fluorophenyl)-N-methyl-6-(2-oxooxazolidin-3-yl)benzofuran-3-carboxamide], the IC50 in the assay on HCV replicon genotype 1a (Hepatitis C virus, 96 h) worked out at 2.2 nM; with HCV replicon genotype 1b (Hepatitis C virus, 96 h), 2.1 nM.

Consider `CN(c1cc2oc(-c3ccc(F)cc3)c(-c3nnco3)c2cc1-c1ccc2c(n1)-c1cc3c(F)cccc3n1CO2)S(C)(=O)=O` [Compound 159, N-(5-(11-fluoro-6H-pyrido[2′,3′:5,6][1,3]oxazino[3,4-a]indol-2-yl)-2-(4-fluorophenyl)-3-(1,3,4-oxadiazol-2-yl)benzofuran-6-yl)-N-methylmethanesulfonamide], for which the IC50 in the assay on HCV replicon genotype 1a (Hepatitis C virus, 96 h) came out at 11 nM; in the assay on HCV replicon genotype 1b (Hepatitis C virus, 96 h), 22 nM.

In the case of `CNC(=O)c1c(-c2ccc(F)cc2)oc2cc(C#N)c(-c3ccc4c(n3)-c3cc5c(F)cccc5n3CO4)cc12` [Compound 180, 6-cyano-5-(11-fluoro-6H-pyrido[2′,3′:5,6][1,3]oxazino[3,4-a]indol-2-yl)-2-(4-fluorophenyl)-N-methylbenzofuran-3-carboxamide], the IC50 with HCV replicon genotype 1a (Hepatitis C virus, 96 h) came to 3 nM; in the assay with HCV replicon genotype 1b (Hepatitis C virus, 96 h), 5.3 nM.

With `CC(C)NC(=O)c1c(-c2ccc(F)cc2)oc2cc(N(C)S(C)(=O)=O)c(-c3ccc4c(n3)-c3cc5c(F)cccc5n3CO4)cc12` [Compound 158], the IC50 worked out at 42 nM in the assay on HCV replicon genotype 1a (Hepatitis C virus, 96 h) and 24 nM in the assay on HCV replicon genotype 1b (Hepatitis C virus, 96 h).

Consider `CNC(=O)c1c(-c2ccc(F)cc2)oc2cc(N(CCCF)S(C)(=O)=O)c(-c3ccc4c(n3)-c3cc5c(F)cccc5n3CO4)cc12` [Compound 192], for which the half-inhibitory concentration (IC50) in the assay with HCV replicon genotype 1a (Hepatitis C virus, 96 h) is 4.6 nM; in the assay on HCV replicon genotype 1b (Hepatitis C virus, 96 h), 7.1 nM.

As for `CNC(=O)c1c(-c2ccc(F)cc2)oc2cc(N(C)S(C)(=O)=O)c(-c3ccc4c(n3)-c3cc5c(F)cccc5n3CO4)cc12` [Compound 2, 5-(11-fluoro-6H-pyrido[2′,3′:5,6][1,3]oxazino[3,4-a]indol-2-yl)-2-(4-fluorophenyl)-N-methyl-6-(N-methylmethylsulfonamido)benzofuran-3-carboxamide], the concentration for half-maximal inhibition (IC50) in the assay with HCV replicon genotype 1a (Hepatitis C virus, 96 h) came out at 1.6 nM; in the assay with HCV replicon genotype 1b (Hepatitis C virus, 96 h) it was 2.7 nM.

On to `CNC(=O)c1c(-c2ccc(F)cc2)oc2cc(N(C)S(C)(=O)=O)c(-c3ccc4c(n3)-c3[nH]c5ncccc5c3CO4)cc12` [Compound 52, 5-(6,11-dihydropyrido[2″,3″:5′,6′]pyrano[3′,4′:4,5]pyrrolo[2,3-b]pyridin-2-yl)-2-(4-fluorophenyl)-N-methyl-6-[methyl(methylsulfonyl)amino]-1-benzofuran-3-carboxamide], for which the half-inhibitory concentration (IC50) in the assay with HCV replicon genotype 1a (Hepatitis C virus, 96 h) is 1.7 nM; with HCV replicon genotype 1b (Hepatitis C virus, 96 h), 2.7 nM.

Regarding `CNC(=O)c1c(-c2ccc(F)cc2)oc2cc(N(C)S(C)(=O)=O)c(-c3ccc4c(n3)-c3cc5c(F)cccc5n3C(C)O4)cc12` (stereo not drawn) [Compound 37], the half-inhibitory concentration (IC50) in the assay with HCV replicon genotype 1a (Hepatitis C virus, 96 h) amounted to 3.4 nM; in the assay with HCV replicon genotype 1b (Hepatitis C virus, 96 h) it was 5.9 nM.

Consider `CNC(=O)c1c(-c2ccc(F)cc2)oc2cc(N(CCCF)S(C)(=O)=O)c(-c3ncc4c(n3)-c3cc5c(F)cccc5n3CO4)cc12` [Compound 195], for which the IC50 in the assay with HCV replicon genotype 1a (Hepatitis C virus, 96 h) stood at 2.1 nM; in the assay on HCV replicon genotype 1b (Hepatitis C virus, 96 h), 4.1 nM.

With `CNC(=O)c1c(-c2ccc(F)cc2)oc2cc(N(C)S(C)(=O)=O)c(-c3ccc4c(c3)-c3cc5ccccc5n3CC(NCCN(C)C)CO4)cc12` (stereo not drawn) [Compound 80, 5-(7-((2-(dimethylamino)ethyl)amino)-7,8-dihydro-6H-benzo[2,3][1,5]oxazocino[5,4-a]indol-2-yl)-2-(4-fluorophenyl)-N-methyl-6-(N-methylmethylsulfonamido)benzofuran-3-carboxamide], the half-inhibitory concentration (IC50) was 18 nM in the assay on HCV replicon genotype 1a (Hepatitis C virus, 96 h) and 15 nM in the assay on HCV replicon genotype 1b (Hepatitis C virus, 96 h).

`CNC(=O)c1c(-c2ccc(F)cc2)oc2cc(N(C)S(C)(=O)=O)c(-c3ccc4c(n3)-c3cc5c(F)cccc5n3C(c3ccccc3)O4)cc12` (stereo not drawn) [Compound 51, 5-(11-fluoro-6-phenyl-6H-pyrido[2′,3′:5,6][1,3]oxazino[3,4-a]indol-2-yl)-2-(4-fluorophenyl)-N-methyl-6-(N-methylmethylsulfonamido)benzofuran-3-carboxamide]: the IC50 in the assay on HCV replicon genotype 1a (Hepatitis C virus, 96 h) was found to be 17 nM; in the assay with HCV replicon genotype 1b (Hepatitis C virus, 96 h) it was 33 nM.

As for `CNC(=O)c1c(-c2ccc(F)cc2)oc2cc(N(C)S(C)(=O)=O)c(-c3cnc4c(c3)-c3cc5c(F)cccc5n3CO4)cc12` [Compound 34], the 50% inhibitory concentration (IC50) in the assay on HCV replicon genotype 1a (Hepatitis C virus, 96 h) came to 1.4 nM; with HCV replicon genotype 1b (Hepatitis C virus, 96 h), 3.3 nM.

In the case of `CNC(=O)c1c(-c2ccc(F)cc2)oc2cc(N(C)S(C)(=O)=O)c(-c3ccc4c(n3)-c3c(F)c5ccccc5n3CO4)cc12` [Compound 58, 5-(12-fluoro-6H-pyrido[2′,3′:5,6][1,3]oxazino[3,4-a]indol-2-yl)-2-(4-fluorophenyl)-N-methyl-6-(N-methylmethylsulfonamido)benzofuran-3-carboxamide], the IC50 in the assay with HCV replicon genotype 1a (Hepatitis C virus, 96 h) is 13 nM; in the assay on HCV replicon genotype 1b (Hepatitis C virus, 96 h) it was 8.7 nM.

With `CNC(=O)c1c(-c2ccc(F)cc2)oc2cc(N(C)S(C)(=O)=O)c(-c3ccc4c(n3)-c3cc5c(F)cccc5n3C(C(=O)NC)O4)cc12` (stereo not drawn) [Compound 109], the concentration for half-maximal inhibition (IC50) with HCV replicon genotype 1a (Hepatitis C virus, 96 h) came out at 2 nM; in the assay on HCV replicon genotype 1b it was 2.1 nM.

As for `CNC(=O)c1c(-c2ccc(F)cc2)oc2cc(N3CCN(C)C3=O)c(-c3ccc4c(n3)-c3cc5c(F)cccc5n3CO4)cc12` [Compound 178, 5-(11-fluoro-6H-pyrido[2′,3′:5,6][1,3]oxazino[3,4-a]indol-2-yl)-2-(4-fluorophenyl)-N-methyl-6-(3-methyl-2-oxoimidazolidin-1-yl)benzofuran-3-carboxamide], the concentration for half-maximal inhibition (IC50) in the assay with HCV replicon genotype 1a (Hepatitis C virus, 96 h) was found to be 133 nM; in the assay on HCV replicon genotype 1b (Hepatitis C virus, 96 h) it was 28 nM.

As to `CNC(=O)c1c(-c2ccc(F)cc2)oc2cc(N(CCF)S(C)(=O)=O)c(-c3ncc4c(n3)-c3cc5c(F)cccc5n3CO4)cc12` [Compound 193], the IC50 in the assay on HCV replicon genotype 1a (Hepatitis C virus, 96 h) stood at 1.3 nM; with HCV replicon genotype 1b (Hepatitis C virus, 96 h), 1.7 nM.

On to `CNC(=O)c1c(-c2ccc(F)cc2)oc2cc(N(C)S(C)(=O)=O)c(-c3ccc4c(n3)-c3cc5c(F)cccc5n3C(CN)O4)cc12` (stereo not drawn) [Compound 114, 5-(6-(aminomethyl)-11-fluoro-6H-pyrido[2′,3′:5,6][1,3]oxazino[3,4-a]indol-2-yl)-2-(4-fluorophenyl)-N-methyl-6-(N-methylmethylsulfonamido)benzofuran-3-carboxamide], for which the IC50 in the assay with HCV replicon genotype 1a (Hepatitis C virus, 96 h) was found to be 7.3 nM; with HCV replicon genotype 1b (Hepatitis C virus, 96 h), 18 nM.

In the case of `CNC(=O)c1c(-c2ccc(F)cc2)oc2cc(N(CC(C)O)S(C)(=O)=O)c(-c3ccc4c(n3)-c3cc5c(F)cccc5n3CO4)cc12` (stereo not drawn) [Compound 203], the IC50 in the assay with HCV replicon genotype 1a came out at 2.9 nM; in the assay with HCV replicon genotype 1b it was 8.9 nM.

Take `CNC(=O)c1c(-c2ccc(F)cc2)oc2ccc(-c3ccc4c(n3)-c3cc5c(F)cccc5n3CO4)cc12` [Compound 162, 5-(11-fluoro-6H-pyrido[2′,3′:5,6][1,3]oxazino[3,4-a]indol-2-yl)-2-(4-fluorophenyl)-N-methylbenzofuran-3-carboxamide]: the IC50 stood at 29 nM in the assay with HCV replicon genotype 1a (Hepatitis C virus, 96 h) and 18 nM in the assay with HCV replicon genotype 1b (Hepatitis C virus, 96 h).

Regarding `COC(=O)c1c(-c2ccc(F)cc2)oc2cc(N(C)S(C)(=O)=O)c(-c3ccc4c(n3)-c3cc5c(F)cccc5n3CO4)cc12` [Compound 150, methyl 5-(11-fluoro-6H-pyrido[2′,3′:5,6][1,3]oxazino[3,4-a]indol-2-yl)-2-(4-fluorophenyl)-6-(N-methylmethylsulfonamido)benzofuran-3-carboxylate], the IC50 in the assay on HCV replicon genotype 1a (Hepatitis C virus, 96 h) was found to be 38 nM; in the assay with HCV replicon genotype 1b (Hepatitis C virus, 96 h) it was 30 nM.

Consider `CNC(=O)c1c(-c2ccc(F)cc2)oc2cc(N(C)S(C)(=O)=O)c(-c3ccc4c(c3)-c3nc5ccc(F)cn5c3CO4)cc12` [Compound 143], for which the IC50 with HCV replicon genotype 1a (Hepatitis C virus, 96 h) came to 15 nM; in the assay on HCV replicon genotype 1b (Hepatitis C virus, 96 h) it was 8 nM.

Take `CCNC(=O)C1Oc2ccc(-c3cc4c(C(=O)NC)c(-c5ccc(F)cc5)oc4cc3N(C)S(C)(=O)=O)nc2-c2cc3c(F)cccc3n21` (stereo not drawn) [Compound 107]: the IC50 with HCV replicon genotype 1a worked out at 1.5 nM; in the assay with HCV replicon genotype 1b it was 0.7 nM.
